Source: publication PMC12736270, “Application of Data-Centric Supervised Machine Learning to Predict Phenotypic Activity Against Clinically Relevant Stages of Trypanosoma cruzi” (Pharmaceutics, 2025)
Entries after “also recorded” stand apart in the source; their conditions may differ. Where two headings read alike, the source gives them in different places.

Legend:
[1] = tested on: culture-derived trypomastigotes of the T. cruzi Y strain; assay: Trypanocidal effect on Y strain trypomastigotes (resazurin viability); assay type: cell-based, Trypanosoma cruzi; conditions: for Activity on Y Trypomastigotes: tested at 10 µM and 50 µM, 24 h
Experimental: (§1) For the evaluation of the trypanocidal effect of selected drugs on trypomastigotes, assays were performed using culture-derived trypomastigotes of the T. cruzi Y and K98 strains. Parasites were incubated in 96-well plates at a density ranging from 5 × 10^5 to 1 × 10^6 trypomastigotes per well, in a final volume of 100 μL of MEM supplemented with 5% serum. Test compounds were previously dissolved in dimethyl sulfoxide (DMSO) and added to the wells so that the final DMSO concentration was 1%. Wells containing 1% DMSO were used as vehicle controls, and 10 μM BZN served as a positive control. In the case of the Y strain, after 24 h of incubation at 37 °C, 10 μL of resazurin solution was added to reach a final concentration of 0.01 mg/mL. Plates were incubated for approximately 4 h at 37 °C to allow fluorescence development, and readings were performed in a microplate reader with excitation and emission wavelengths of 530 nm and 590 nm, respectively. To calculate EC50 in trypomastigotes, six points were used in a concentration range of 5 to 100 μM. At least three independent assays were performed. In the case of the K98 strain, after 24 h of incubation, motile parasites were counted in a hemocytometer chamber under a light microscope. Controls consisted of RPMI-1640 supplemented with 5% FBS as well as RPMI-1640 with 0.1% DMSO. At least three independent assays were performed.

[2] = tested on: trypomastigotes of the K98 strain (TcI); assay: Trypanocidal effect on K98 strain trypomastigotes (motile parasite count); assay type: cell-based, Trypanosoma cruzi; conditions: 24 h of incubation
Experimental: as §1

[3] = tested on: intracellular amastigotes of the Tulahuen strain; assay: Intracellular amastigote assay, Tulahuen β-galactosidase strain in Vero cells; assay type: cell-based, Trypanosoma cruzi; conditions: for EC50: Trypanosoma cruzi, TULAHUEN, read-out: Activity on Tul Amastigotes; for activity on intracellular amastigotes: Tulahuen strain, infected Vero cells
Experimental: To evaluate the trypanocidal effect of the selected compounds on intracellular amastigotes, the drug screening method reported by Buckner et al. was adapted. Vero cells were seeded at 1 × 10^4 per well on a 96-well culture plate in 100 μL MEM-5% FBS. Tulahuen trypomastigotes overexpressing the E. coli β-galactosidase protein (LacZ clone C4 strain—ATCC® PRA-330™, ATCC, Manassas, VA, USA) were used to infect Vero cell monolayers (MOI: 10:1) in triplicate. After 2 h incubation at 37 °C, the culture media were removed and non-internalized parasites were eliminated by washing each well with at least 10 vol of sterile PBS 1X, after which fresh MEM-5% FBS was added. After 16–18 h, the culture medium was replaced with culture medium bearing the compounds to be tested at the desired concentration. Test compounds were prepared in DMSO, ensuring a final DMSO concentration of 1%. Cells treated with 1% DMSO were used as vehicle controls. To determine the IC50, each drug was evaluated in at least six different concentrations (usually 0.78, 1.56, 3.13, 6.25, 12.5, and 50.0 μM). The plate was further incubated for another 72 h at 37 °C, after which the culture media were removed and cells and intracellular amastigotes were lysed in 100 μL lysis buffer (25 mM Tris pH 8, 2 mM EDTA, 2 mM DTT, 1% Triton X-100, 10% glycerol in ultrapure MQ water) for 10 min at 37 °C. Then, 100 μL 2X reaction buffer (200 mM sodium phosphate, pH 8, 2 mM MgCl2, 100 mM 2-mercaptoethanol, and 1.33 mg.mL^−1 o-nitrophenyl-β-galactoside (ONPG)) was added, and the reaction was allowed to proceed until a yellow color developed (1–2 h at 37 °C). The absorbance at 420 nm was measured in a Synergy HTX multi-mode microplate reader (Biotek Instruments, Winooski, VT, USA) and normalized to the value obtained for the infection in the absence of inhibitors. IC50 for BZN was also evaluated following this method (concentrations evaluated: 0.10, 0.20, 0.39, 0.78, 1.56, 3.13, 6.25, 12.5, and 50.0 μM). Uninfected cells were included as blanks. Each compound was tested in at least two independent experiments.

Vero cells = assay: Cytotoxicity against Vero cells; assay type: cell-based; conditions: for CC50 Vero Cells: Not toxic = no toxic effect observed up to 50 µM
[4] = set-up: method as in PMID 37061109; conditions: phase III clinical trial, non-alcoholic steatohepatitis; cited from earlier work
[5] = Cytotoxicity against Vero cells; assay type: cell-based; conditions: African green monkey, Vero cells; Not toxic = no toxic effect observed up to 50 µM
[6] = intracellular amastigotes infecting Vero cells, 72 h
[7] = * not reliable because of the simultaneous toxic effect against Vero cells

SMILES | Activity on Y Trypomastigotes [1] | EC50 [3, 6] [µM] | activity on intracellular amastigotes [3] | cytotoxic effects on Vero cells (Vero cells) | CC50 Vero Cells (Vero cells) | also measured
CC#C[C@]1(O)CC[C@H]2[C@@H]3CCC4=CC(=O)CCC4=C3[C@@H](c3ccc(N(C)C)cc3)C[C@@]21C [Mifepristone] | Active | – | – | – | – | reduction in parasite viability ([1]; 50 µM, after 24 h of incubation, Y strain): 69.5%; EC50 ([2]; Trypanosoma cruzi): 17.9 µM
CCCCOCCOc1ccc(-c2ccc3c(c2)/C=C(/C(=O)Nc2ccc([S@@+]([O-])Cc4cncn4CCC)cc2)CCCN3CC(C)C)cc1 [Cenicriviroc] | – | 4.76 | active | did not present cytotoxic activity | Not toxic | selectivity index ([3]; intracellular amastigotes versus Vero cells): greater than 10; primary efficacy endpoints for fibrosis [4]: did not meet its primary efficacy endpoints
Cc1ccc(-n2nc(C(C)(C)C)cc2NC(=O)Nc2ccc(OCCN3CCOCC3)c3ccccc23)cc1 [Doramapimod] | – | 11 | active | did not present cytotoxic activity | Not toxic | –
C=CC[C@]1(O)CC[C@H]2[C@@H]3CCC4=CC(=O)CCC4=C3C=C[C@@]21C [Altrenogest] | did not exhibit detectable activity; also recorded: Not active | – | – | – | – | EC50 on K98 Trypomastigotes [2]: Not active
CC(F)(F)c1cc(F)ccc1-c1sc2cc(O)ccc2c1Oc1ccc(/C=C/C(=O)O)cc1 [LSZ-102] | – | 19.4 | active | did not present cytotoxic activity | Not toxic | –
COCCNCc1ccc(-c2cc3nccc(Oc4ccc(NC(=S)NC(=O)Cc5ccc(F)cc5)cc4F)c3s2)nc1 [Glesatinib] | – | – | – | cytotoxic effects | – | EC50 [3, 7]: 6.49 µM; CC50 [5]: ~25 µM
CC1(C)CCC(c2ccc(Cl)cc2)=C(CN2CCN(c3ccc(C(=O)NS(=O)(=O)c4ccc(N[C@H](CCN5CCOCC5)CSc5ccccc5)c(S(=O)(=O)C(F)(F)F)c4)cc3)CC2)C1 [Navitoclax] | – | – | – | cytotoxic effects | – | EC50 [3, 7]: 2.14 µM; CC50 [5]: 6.03 µM
C[C@]12CCC3=C4CCC(=O)C=C4CC[C@H]3[C@@H]1CC[C@@]2(O)CC#N [Dienogest] | did not exhibit detectable activity; also recorded: Not active | – | – | – | – | EC50 on K98 Trypomastigotes [2]: Not active
